Experimental data reported in US20080015166A1, “Barrier Integrity in Hiv Patients” (N.V. Nutricia, priority 2004, published 2008).

Assays:
[1] = test system: intestinal epithelial cell lines T84 monolayers incubated with IL-4; assay: Effect of LC-PUFA on IL-4 mediated barrier disruption: TER and flux in T84 monolayers; format: cell-based, human; conditions: for Permeability (IL-4 Flux) / Resistance (IL-4 TER) / effect on IL-4 mediated barrier disruption (flux), in words: 100 μM; for Permeability (IL-4 Flux) / Resistance (IL-4 TER): 48 hr pre-incubation then 48 hr co-incubation with IL-4 2 ng/ml; for effect on IL-4 mediated barrier disruption (flux), in words: Table 2; for IL-4 mediated barrier destruction (Flux), FIG. 2 (in words): time and dose (10 μM and 100 μM) dependent, 4 kD dextran flux
Description: (§1) Monolayers (MC) of intestinal epithelial cell lines T84 (American Type Culture Collection (ATTC), Manassas, USA) were cultured on transwell filters (Corning, Costar B V, The Netherlands) allowing both mucosal and serosal sampling and stimulation of human intestinal epithelial cells. Two weeks post confluency the monolayers were incubated in the luminal compartment with polyunsaturated fatty acids ARA (arachidonic acid; 5,8,11,14-eicosatetraenoic acid), DHA (cis-4,7,10,13,16,19 docosahexaenoic acid), EPA (eicosapentaenoic acid) or control palmitic (C 16:0) acid (Palm) (Sigma, St. Louis, USA). The latter procedure was chosen to mimic the in vivo administration route of the dietary compounds. Cells were incubated with ARA, DHA, EPA, GLA or palmitic acid for 0, 24, 48 and 72 hr at different concentrations (10 μM and 100 μM). Experiments were performed to evaluate basal barrier integrity. The epithelial barrier function was determined by measuring the transepithelial resistance (TER, Ω.cm^2) was measured by epithelial volt-ohm meter (EVOM; World Precision Instruments, Germany) and permeability for 4 kD FITC dextran (paracellular permeability marker, Sigma, USA). Resistance (. Epithelial permeability for 4 kDa FITC-dextran was determined as follows. Prior to dextran fluxes the medium was refreshed with culture medium without phenol red for one hour followed by addition of 5 μl (stock 100 mg/ml) 4 kDa FITC-dextran to the lumenal compartment. After 30 min incubation 100 μl sample was collected from the serosal compartment and the fluorescent signal measured at excitation wavelength 485 nm and emission 520 nm (FLUOstar Galaxy®, BMG Labtechnologies, USA). FITC-dextran fluxes were calculated as pmol FITC-dextran/cm^2/h. Statistical analyses were performed using the ANOVA (SPSS version 10).
Monolayers (MC) of intestinal epithelial cell lines T84 (ATCC, USA) were cultured on transwell filters (Corning, Costar B V, The Netherlands) allowing both mucosal and serosal sampling and stimulation of human intestinal epithelial cells. Two weeks post confluency the monolayers were incubated in the presence of IL-4 (2 ng/ml, serosal compartment, Sigma, USA ) with or without polyunsaturated fatty acids ARA, DHA, GLA, EPA, or control palmitic acid (10 μM or 100 μM, mucosal compartment, Sigma, St. Louis, USA). Cells were pre-incubated with GLA, ARA, DHA, EPA, or palmitic acid for 48 hr prior to the IL-4 incubation. The co-incubation of PUFA's and palmetic acid with IL-4 was continued for another 48 hr; while culture medium and additives were changed every 24 hr. The epithelial barrier function was determined by measuring the transepithelial resistance (TER) and permeability as described in example 1. Statistical evaluation was performed as described in example 1.

[2] = test system: intestinal epithelial cell lines T84 monolayers; assay: Effect of LC-PUFA on basal (spontaneous) barrier integrity: TER and 4 kD FITC dextran flux in T84 monolayers; format: cell-based, human; conditions: for effect on epithelial resistance (in words) / effect on molecular flux (in words): 100 μM, 72 hr, Table 1; for basal barrier integrity (TER), FIG. 1 (in words): time and dose (10 μM and 100 μM) dependent
Description: as §1

[3] = test system: MUC-2 expression in intestinal epithelial T84 cells; conditions: 24 h, 0.025-4.0 mM, MC T84 and CC T84, compared to propionate and butyrate

Row | Compound | Permeability (IL-4 Flux) [1] | Resistance (IL-4 TER) [1] | effect on IL-4 mediated barrier disruption (flux), in words [1] | IL-4 mediated barrier destruction (Flux), FIG. 2 (in words) [1] | effect on epithelial resistance (in words) [2] | effect on molecular flux (in words) [2] | basal barrier integrity (TER), FIG. 1 (in words) [2] | stimulating MUC-2 expression (mucus production), FIG. 4 (in words) [3]
1 | CCCCCC=CCC=CCC=CCC=CCCCC(=O)O [ARA, 5,8,11,14-eicosatetraenoic acid] | 273 ↓ pmol FITC-dextran/cm^2/h | 337 ↑ Ω.cm^2 | inhibit the increased flux caused by IL-4 | decreased 4 kD dextran flux | improve epithelial resistance | reduce the molecular flux | increased resistance | –
2 | CCC=CCC=CCC=CCC=CCC=CC/C=C\CCC(=O)O [DHA, cis-4,7,10,13,16,19 docosahexaenoic acid] | 304 ↓ pmol FITC-dextran/cm^2/h | 328 ↑ Ω.cm^2 | inhibit the increased flux caused by IL-4 | decreased 4 kD dextran flux | improve epithelial resistance | reduce the molecular flux | increased resistance | –
3 | CC/C=C\C/C=C\C/C=C\C/C=C\C/C=C\CCCC(=O)O [EPA, eicosapentaenoic acid] | 236 ↓ pmol FITC-dextran/cm^2/h | 375 ↑ Ω.cm^2 | – | – | – | – | – | –
4 | CCCCC/C=C\C/C=C\C/C=C\CCCCC(=O)O [GLA, gamma linolenic acid] | 360 ↓ pmol FITC-dextran/cm^2/h | 331 ↑ Ω.cm^2 | inhibit the increased flux caused by IL-4 | decreased 4 kD dextran flux | improve epithelial resistance | reduce the molecular flux | increased resistance | –
5 | CCCCCCCCCCCCCCCC(=O)O [Palmitic acid, palmitic acid, reference compound] | – | – | detrimental effect | – | opposite effects | opposite effects | – | –
6 | CC(=O)O [acetate] | – | – | – | – | – | – | – | more potent
